In US20150284375A1 (AJINOMOTO CO., INC., priority 2012, published 2015):

target: T1, human TRPA1 (Homo sapiens, UniProt O75762); assay: Measurement of TRPA1 antagonist activity (intracellular calcium increase, FLIPR, allylisothiocyanate stimulation); type: cell-based; conditions: 293T cells transfected with human TRPA1; allylisothiocyanate 20 μM; concentration for 50% inhibitory rate; read-out: antagonism hTRPA1
T1 construct: expressed in transfected cells; host or cells: Human embryonic kidney-derived 293T cells, transiently transfected with the pcDNA3.1/zeo(+) human TRPA1 plasmid
T1 sequence (O75762 whole entry): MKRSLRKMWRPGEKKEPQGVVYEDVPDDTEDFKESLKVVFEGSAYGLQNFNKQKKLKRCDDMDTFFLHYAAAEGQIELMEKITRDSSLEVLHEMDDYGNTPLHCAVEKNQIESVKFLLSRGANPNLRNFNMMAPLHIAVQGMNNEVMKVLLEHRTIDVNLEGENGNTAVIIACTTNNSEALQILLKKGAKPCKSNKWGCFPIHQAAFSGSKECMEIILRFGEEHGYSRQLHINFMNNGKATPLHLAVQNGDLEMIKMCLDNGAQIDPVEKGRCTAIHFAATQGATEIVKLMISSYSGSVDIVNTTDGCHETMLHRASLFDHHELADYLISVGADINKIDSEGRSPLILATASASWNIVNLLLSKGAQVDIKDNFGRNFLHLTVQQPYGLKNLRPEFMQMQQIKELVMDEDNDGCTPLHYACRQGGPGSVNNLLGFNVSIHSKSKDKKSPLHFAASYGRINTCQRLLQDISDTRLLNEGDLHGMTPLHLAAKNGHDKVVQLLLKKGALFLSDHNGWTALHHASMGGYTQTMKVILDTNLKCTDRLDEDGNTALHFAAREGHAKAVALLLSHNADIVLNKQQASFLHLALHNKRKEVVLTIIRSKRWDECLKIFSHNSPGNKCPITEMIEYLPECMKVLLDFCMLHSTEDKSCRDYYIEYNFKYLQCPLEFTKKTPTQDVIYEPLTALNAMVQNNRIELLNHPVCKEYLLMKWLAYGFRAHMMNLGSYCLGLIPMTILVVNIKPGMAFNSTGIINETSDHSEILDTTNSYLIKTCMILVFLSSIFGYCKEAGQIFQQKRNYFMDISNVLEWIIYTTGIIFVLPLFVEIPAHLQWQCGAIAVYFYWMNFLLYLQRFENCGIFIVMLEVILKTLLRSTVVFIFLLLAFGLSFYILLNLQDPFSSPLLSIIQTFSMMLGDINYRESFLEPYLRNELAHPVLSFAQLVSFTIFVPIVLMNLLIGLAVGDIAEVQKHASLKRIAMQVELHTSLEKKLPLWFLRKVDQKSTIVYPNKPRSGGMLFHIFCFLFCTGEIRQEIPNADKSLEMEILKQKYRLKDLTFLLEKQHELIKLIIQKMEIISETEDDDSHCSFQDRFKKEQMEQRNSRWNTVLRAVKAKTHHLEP
From the text: Measurement of TRPA1 Antagonist Activity
Human TRPA1 Expression Plasmid
As cDNA encoding human TRPA1 (GenBank accession No. […]), a commercially available product was purchased (manufactured by Kazusa DNA Research Institute, clone No.: pFN21AB7348, item No.: FHC07217). Using this as a template, full-length human TRPA1 gene was amplified using the primer sequences shown below, by reaction using DNA polymerase (manufactured by Stratagene, trade name: PfuUltra High-Fidelity DNA Polymerase).
A recognition site (underlined) of restriction enzyme HindIII was added to the 5′ side, and XbaI site (underlined) was added to the 3′ side, and GTT of the template sequence was changed to termination codon TAG (bold). The obtained double stranded DNA was enzyme-digested with HindIII and XbaI, and introduced into a multicloning site of expression plasmid pcDNA3.1/zeo(+) (manufactured by Invitrogen) to give a human TRPA1 expression plasmid.
Human embryonic kidney-derived 293T cells were cultured in Dulbecco's Modified Eagle Medium containing 10% fetal bovine serum, 10 unit penicillin, and 10 μg streptomycin, plated on a petri dish having a diameter of 10 cm at 3×10^6 cells, and cultured for 24 hr. A medium containing a reduced amount of serum (manufactured by Invitrogen, trade name: OPTI-MEM, 600 μL), a gene insertion reagent (manufactured by Mirus Bio, trade name: Mirus TransIT-293, 18 μL), and human TRPA1 expression plasmid (6 μg) were mixed, the total amount of the mixture was added to the cells on the petri dish to allow for gene transfer. The cells were recovered about 8 hr later, plated on a poly-D-lysine coated 384 well black/clear bottom plate at 7,500-12,000 cells/well, and cultured overnight.
Measurement of Intracellular Calcium Increase
The 384 well plate was recovered, and the medium was removed. A calcium-bonded fluorescent indicator (manufactured by Molecular Device, trade name: Calcium4 Assay Kit, 40 μL) dissolved in assay buffer (1×HBSS, 20 mM HEPES, pH 7.2) was added, and the cells were stained in a 37° C. incubator for 1 hr. The cells were taken out at room temperature and left standing for 15 min or more. A test substance (10 μL) was added by a 384 well type dispenser, and the mixture was incubated at room temperature for 10 min. Then, allylisothiocyanate (12.5 μL) at a final concentration of 20 μM was added by a fluorescence imaging plate reader (manufactured by Molecular Device, FLIPR), and changes in the relative fluorescence intensity were measured for 5 min.
Test Substance Preparation
The test substance was dissolved in dimethyl sulfoxide and serially diluted with an assay buffer containing 0.1% bovine serum albumin (1×HBSS, 20 mM HEPES, pH 7.2) to a 5-fold concentration of the evaluation concentration. Allylisothiocyanate, which is a known TRPA1 activator, was dissolved in dimethyl sulfoxide to 100 mM, and further diluted 5-fold (100 μM) of the final concentration, like the test substance.
Calculation of Antagonist Activity
Under the test substance-free conditions, the maximum variation range of the fluorescence intensity before and after allylisothiocyanate stimulation was defined to be 100% activity rate, and the variation range before and after buffer stimulation was defined as 0% activity rate. The activity rate on addition of the test substance was determined, and the numerical value obtained by subtracting the activity rate from 100 was defined to be an inhibitory rate. 1050, which is the concentration of the test substance necessary for reaching the 50% inhibitory rate, was calculated from the sigmoid approximate curve by a spreadsheet software Excel-Fit.

| SMILES | IC50 |
| --- | --- |
| O=C(NCc1c(F)cc(Oc2cccc(C(F)(F)F)c2)cc1F)[C@@H]1CCCN1S(=O)(=O)c1ccc(Cl)s1 [Example 26, (2S)-1-(5-chlorothiophene-2-sulfonyl)-N-({2,6-difluoro-4-[3-(trifluoro-methyl)phenoxy]phenyl}methyl)pyrrolidine-2-carboximide] | 930 nM |
| O=C(NCc1ccc(F)c(Oc2ccc(C(F)(F)F)cc2)c1F)[C@@H]1CCCN1S(=O)(=O)c1ccc(Cl)s1 [Example 27, (2S)-1-(5-chlorothiophene-2-sulfonyl)-N-({2,4-difluoro-3-[4-(trifluoro-methyl)phenoxy]phenyl}methyl)pyrrolidine-2-carboxamide] | 220 nM |
| O=C(NCc1c(F)ccc(Oc2ccc(C(F)(F)F)cc2)c1Cl)[C@@H]1CCCN1S(=O)(=O)c1ccc(Cl)s1 [Example 28, (2S)-N-({2-chloro-6-fluoro-3-[4-(trifluoromethyl)phenoxy]phenyl}methyl)-1-(5-chlorothiophene-2-sulfonyl)pyrrolidine-2-carboxamide] | 1900 nM |
| O=C(NCc1ccc(Oc2cccc(C(F)(F)F)c2)cc1)[C@@H]1CCCN1S(=O)(=O)c1ccc(F)cc1 [Example 30, (2S)-1-(4-fluorophenyl)sulfonyl-N-({4-[3-(trifluoro-methyl)phenoxy]phenyl}methyl)pyrrolidine-2-carboxamide] | 230 nM |
| O=C(NCc1ccc(Oc2cccc(C(F)(F)F)c2)cc1)[C@@H]1CCN1S(=O)(=O)c1ccc(Cl)s1 [Example 31, (2S)-1-(5-chlorothiophene-2-sulfonyl)-N-({4-[3-(trifluoro-methyl)phenoxy]phenyl}methyl)azetidine-2-carboxamide] | 900 nM |
| O=C(NCc1cccc(Oc2ccc(C(F)(F)F)cc2)c1)C1COCCN1S(=O)(=O)c1ccc(Cl)s1 (stereo not drawn) [Example 35, 4-(5-chlorothiophene-2-sulfonyl)-N-({3-[4-(trifluoro-methyl)phenoxy]phenyl}methyl)morpholine-3-carboxamide] | 810 nM |

Compounds with a lower IC50, results first:

| IC50 | SMILES |
| --- | --- |
| 150 nM | O=C(NCc1cccc(Oc2ccc(C(F)(F)F)cc2)c1)[C@@H]1CCN1S(=O)(=O)c1ccc(Cl)s1 [Example 34, (2S)-1-(5-chlorothiophene-2-sulfonyl)-N-({3-[4-(trifluoro-methyl)phenoxy]phenyl}methyl)azetidine-2-carboxamide] |
| 140 nM | O=C(NCc1ccc(Oc2cccc(C(F)(F)F)c2)c(Cl)c1)[C@@H]1CCCN1S(=O)(=O)c1ccc(Cl)s1 [Example 24, (2S)-1-(5-chlorothiophene-2-sulfonyl)-N-({3-chloro-4-[3-(trifluoro-methyl)phenoxy]phenyl}methyl)pyrrolidine-2-carboxamide] |
| 140 nM | O=C(NCc1ccc(Oc2cccc(C(F)(F)F)c2)cc1)[C@@H]1C=CCN1S(=O)(=O)c1ccc(Cl)s1 [Example 29, (2S)-1-(5-chlorothiophene-2-sulfonyl)-N-({4-[3-(trifluoromethyl)phenoxy]phenyl}methyl)-2,5-dihydropyrrole-2-carboxamide] |
| 130 nM | O=C(NCc1ccc(Oc2cccc(C(F)(F)F)c2)c(F)c1)[C@@H]1CCCN1S(=O)(=O)c1ccc(Cl)s1 [Example 25, (2S)-1-(5-chlorothiophene-2-sulfonyl)-N-({3-fluoro-4-[3-(trifluoro-methyl)phenoxy]phenyl}methyl)pyrrolidine-2-carboxamide] |
| 56 nM | O=C(NCc1cccc(Oc2ccc(C(F)(F)F)cc2)c1)[C@@H]1CCCN1S(=O)(=O)c1ccc(F)cc1 [Example 33, (2S)-1-(4-fluorophenyl)sulfonyl-N-({3-[4-(trifluoro-methyl)phenoxy]phenyl}methyl)pyrrolidine-2-carboxamide] |
| 19 nM | O=C(NCc1cccc(Oc2ccc(C(F)(F)F)cc2)c1)[C@@H]1C=CCN1S(=O)(=O)c1ccc(Cl)s1 [Example 32, (2S)-1-(5-chlorothiophene-2-sulfonyl)-N-({3-[4-(trifluoro-methyl)phenoxy]phenyl}methyl)-2,5-dihydropyrrole-2-carboxamide] |
